Laboratory results reported in ChEMBL document CHEMBL3046782, “Fungicidial Activity of Benthiavalicarb-isopropyl against Phytophthora infestans and Its Controlling Activity against Late Blight Diseases” (J Pestic Sci, 2005).
Converted amounts (≈) assume the structure as drawn.

Test system: Phytophthora infestans
Assay: Antifungal activity against phenylamide-resistant Phytophthora infestans 7-1 assessed as inhibition of mycelial growth after 5 to 7 days
Type: functional, organism-based, 07-Jan
Settings: for IC50: Phytophthora infestans, 07-Jan, read-out: I50

`CC(C)OC(=O)N[C@H](C(=O)N[C@H](C)c1nc2ccc(F)cc2s1)C(C)C` [BENTHIAVALICARB-ISOPROPYL] was tested, and the MIC was 0.1 µg/mL (≈ 0.262 µM) and the IC50 was 0.04 µg/mL (≈ 0.105 µM).
For `COCC(=O)N(c1c(C)cccc1C)C(C)C(=O)OC` (centres undefined) [METALAXYL], the MIC was >10 µg/mL and the IC50 was > 10 µg/mL.
